Patent US4398029A, “Quinoline carboxylic acid derivatives and process for the preparation” (Kyorin Seiyaku Kabushiki Kaisha, priority 1981, dated 1983)
In brackets after ≈: the same amount, converted by molar mass. Where a name gives a salt, the structure may show the parent alone. Read-outs that look alike come from different tables or passages of the source.

Experiments:
S. aureus Terajima = test: Antibacterial activity (MIC), standard agar dilution streak method; format: cell-based, Staphylococcus aureus; details: for MIC: Staphylococcus aureus, read-out: Minimum inhibitory concentration
Description: (§1) The antibacterial activities of the compounds of the present invention were assayed by the standard agar dilution streak method against Gram-positive and Gram-negative bacteria [Chemotherapy, 22, 1126 (1974)].

E. coli ATCC 10536 = test: as above; format: cell-based, Escherichia coli; details: for MIC: Escherichia coli, ATCC10536, read-out: Minimum inhibitory concentration
Description: as §1

[1] = tested on: Escherichia coli NIHJ JC-2; test: as above; format: cell-based; details: for MIC: read-out: Minimum inhibitory concentration
Description: as §1

[2] = tested on: Yersinia enterocolitica IID 981; test: as above; format: cell-based; details: for MIC: read-out: Minimum inhibitory concentration
Description: as §1

Proteus vulgaris 3167 = test: as above; format: cell-based; details: for MIC: read-out: Minimum inhibitory concentration
Description: as §1

[3] = tested on: Serratia marcescens IID 618; test: as above; format: cell-based; details: for MIC: read-out: Minimum inhibitory concentration
Description: as §1

[4] = tested on: Acinetobacter anitratus IID 876; test: as above; format: cell-based; details: for MIC: Acinetobacter calcoaceticus, IID876, read-out: Minimum inhibitory concentration
Description: as §1

P. mirabilis IID 994 = test: as above; format: cell-based; details: Proteus mirabilis, IID994, read-out: Minimum inhibitory concentration
Description: as §1

[5] = tested on: Klebsiella pneumoniae IFO 3512; test: as above; format: cell-based; details: for MIC: read-out: Minimum inhibitory concentration
Description: as §1

P. morganii IID 602 = test: as above; format: cell-based; details: for MIC: Morganella morganii, read-out: Minimum inhibitory concentration
Description: as §1

[6] = tested on: Bacillus subtilis PCI 219; test: as above; format: cell-based; details: PCI219; for MIC: read-out: Minimum inhibitory concentration
Description: as §1

[7] = tested on: Citrobacter freundii IID 976; test: as above; format: cell-based; details: for MIC: read-out: Minimum inhibitory concentration
Description: as §1

[8] = tested on: Salmonella enteritidis IID 604; test: as above; format: cell-based; details: for MIC: Salmonella enterica, read-out: Minimum inhibitory concentration
Description: as §1

[9] = tested on: Enterobacter cloacae IID 977; test: as above; format: cell-based; details: for MIC: read-out: Minimum inhibitory concentration
Description: as §1

[10] = tested on: Pseudomonas aeruginosa V-1; test: as above; format: cell-based; details: V1, read-out: Minimum inhibitory concentration
Description: as §1

[11] = tested on: Alcaligenes faecalis 0104002; test: as above; format: cell-based; details: for MIC: read-out: Minimum inhibitory concentration
Description: as §1

S. epidermidis IID 866 = test: as above; format: cell-based; details: for MIC: Staphylococcus epidermidis, IID866, read-out: Minimum inhibitory concentration
Description: as §1

[12] = tested on: Staphylococcus aureus 209 p; test: as above; format: cell-based; details: read-out: Minimum inhibitory concentration
Description: as §1

P. aeruginosa IFO 12689 = test: as above; format: cell-based, Pseudomonas aeruginosa; details: for MIC: Pseudomonas aeruginosa, IFO12689, P. aeruginosa IFO 12689, read-out: Minimum inhibitory concentration
Description: as §1

Shigella sonnei IID 969 = test: microbe, parasite or virus in culture; format: cell-based; details: for MIC: read-out: Minimum inhibitory concentration
Description: as §1

gram-negative bacteria = details: prior art statement; cited from earlier work
gram-positive bacteria = details: prior art statement; cited from earlier work
Pseudomonas aeruginosa = details: prior art statement; cited from earlier work
[13] = Escherichia coli, NIHJJC2, Escherichia coli NIHJ JC-2
[14] = Yersinia enterocolitica, IID981, Yersinia enterocolitica IID 981
[15] = Proteus vulgaris, 3167, Proteus vulgaris 3167
[16] = Serratia marcescens, IID618, Serratia marcescens IID 618
[17] = Klebsiella pneumoniae, IFO3512, Klebsiella pneumoniae IFO 3512
[18] = Citrobacter freundii, IID976, Citrobacter freundii IID 976
[19] = Enterobacter cloacae, IID977, Enterobacter cloacae IID 977
[20] = Alcaligenes faecalis, 0104002, Alcaligenes faecalis 0104002
[21] = Shigella sonnei, IID969, Shigella sonnei IID 969

Row | SMILES | MIC (E. coli ATCC 10536) [µg/mL] | MIC [4] [µg/mL] | MIC (S. epidermidis IID 866) [µg/mL] | MIC (P. aeruginosa IFO 12689) [µg/mL] | MIC (S. aureus Terajima; S. aureus Terajima) [µg/mL] | MIC [1, 13] [µg/mL] | MIC [2, 14] [µg/mL] | MIC (Proteus vulgaris 3167; [15]) [µg/mL] | MIC [3, 16] [µg/mL] | MIC (P. mirabilis IID 994; P. mirabilis IID 994) [µg/mL] | MIC [5, 17] [µg/mL] | MIC (P. morganii IID 602; IID602, P. morganii IID 602) [µg/mL] | MIC ([6]; Bacillus subtilis PCI 219) [µg/mL] | MIC [7, 18] [µg/mL] | MIC ([8]; Salmonella enteritidis IID 604) [µg/mL] | MIC [9, 19] [µg/mL] | MIC ([10]; Pseudomonas aeruginosa V-1) [µg/mL] | MIC [11, 20] [µg/mL] | MIC ([12]; Staphylococcus aureus 209 p) [µg/mL] | MIC (Shigella sonnei IID 969; [21]) [µg/mL] | further results
1 | CCN1CCN(c2c(F)cc3c(=O)c(C(=O)O)cn(CC)c3c2F)CC1 [Example 7, 1-Ethyl-7-(4-ethyl-1-piperazinyl)-6,8-difluoro-1,4-dihydro-4-oxoquinoline-3-carboxylic acid] | 0.1 (≈ 0.274 µM) | 0.39 (≈ 1.07 µM) | 0.78 (≈ 2.13 µM) | 6.25 (≈ 17.1 µM) | – | – | – | – | – | – | – | – | – | – | – | – | – | – | – | – | MIC (S. aureus Terajima): 0.78 µg/mL (≈ 2.13 µM); MIC ([1]; NIHJJC2, Escherichia coli NIHJ JC-2): ≤ 0.05 µg/mL; MIC ([2]; IID981, Yersinia enterocolitica IID 981): 0.2 µg/mL (≈ 0.547 µM); MIC (Proteus vulgaris 3167; Proteus vulgaris 3167): ≤ 0.05 µg/mL; MIC ([3]; IID618, Serratia marcescens IID 618): 0.39 µg/mL (≈ 1.07 µM); MIC (P. mirabilis IID 994): 0.2 µg/mL (≈ 0.547 µM); MIC ([5]; IFO3512, Klebsiella pneumoniae IFO 3512): ≤ 0.05 µg/mL; MIC (P. morganii IID 602; IID602): 0.39 µg/mL (≈ 1.07 µM); MIC ([6]; Bacillus subtilis): 0.1 µg/mL (≈ 0.274 µM); MIC ([7]; IID976, Citrobacter freundii IID 976): 0.2 µg/mL (≈ 0.547 µM); MIC [8]: 0.39 µg/mL (≈ 1.07 µM); MIC ([9]; IID977, Enterobacter cloacae IID 977): 0.39 µg/mL (≈ 1.07 µM); MIC ([10]; Pseudomonas aeruginosa): 6.25 µg/mL (≈ 17.1 µM); MIC ([11]; Alcaligenes faecalis 0104002): 1.56 µg/mL (≈ 4.27 µM); MIC ([12]; Staphylococcus aureus, 209P): 0.78 µg/mL (≈ 2.13 µM); MIC (Shigella sonnei IID 969; IID969, Shigella sonnei IID 969): 0.1 µg/mL (≈ 0.274 µM)
2 | CCn1cc(C(=O)O)c(=O)c2cc(F)c(N3CCN(CCO)CC3)c(F)c21 [Example 8, 1-Ethyl-6,8-difluoro-1,4-dihydro-7-[4-(2-hydroxyethyl)-1-piperazinyl]-4-oxoquinoline-3-carboxylic acid] | 0.2 (≈ 0.524 µM) | 1.56 (≈ 4.09 µM) | 0.78 (≈ 2.05 µM) | 12.5 (≈ 32.8 µM) | 0.78 (≈ 2.05 µM) | ≤ 0.05 | 0.39 (≈ 1.02 µM) | 0.1 (≈ 0.262 µM) | 0.78 (≈ 2.05 µM) | 0.2 (≈ 0.524 µM) | ≤ 0.05 | 0.78 (≈ 2.05 µM) | 0.1 (≈ 0.262 µM) | 0.39 (≈ 1.02 µM) | 0.78 (≈ 2.05 µM) | 0.39 (≈ 1.02 µM) | 12.5 (≈ 32.8 µM) | 1.56 (≈ 4.09 µM) | 0.78 (≈ 2.05 µM) | 0.1 (≈ 0.262 µM) | –
3 | CCn1cc(C(=O)O)c(=O)c2cc(F)c(N3CCCC3)c(F)c21 [Example 11, 1-Ethyl-6,8-difluoro-1,4-dihydro-4-oxo-7-(1-pyrrolidinyl)quinoline-3-carboxylic acid] | 0.2 (≈ 0.621 µM) | 0.39 (≈ 1.21 µM) | 0.2 (≈ 0.621 µM) | 6.25 (≈ 19.4 µM) | 0.1 (≈ 0.31 µM) | 0.2 (≈ 0.621 µM) | 0.39 (≈ 1.21 µM) | ≤ 0.05 | 1.56 (≈ 4.84 µM) | 0.1 (≈ 0.31 µM) | ≤ 0.05 | 0.39 (≈ 1.21 µM) | ≤ 0.05 | 0.39 (≈ 1.21 µM) | 1.56 (≈ 4.84 µM) | 1.56 (≈ 4.84 µM) | 6.25 (≈ 19.4 µM) | 0.39 (≈ 1.21 µM) | 0.1 (≈ 0.31 µM) | 0.2 (≈ 0.621 µM) | –
4 | CCn1cc(C(=O)O)c(=O)c2cc(F)c(N3CCOCC3)c(F)c21 [Example 12, 1-Ethyl-6,8-difluoro-1,4-dihydro-7-(4-morpholinyl)4-oxoquinoline-3-carboxylic acid] | 0.39 (≈ 1.15 µM) | 1.56 (≈ 4.61 µM) | 0.39 (≈ 1.15 µM) | 12.5 (≈ 36.9 µM) | 0.39 (≈ 1.15 µM) | 0.2 (≈ 0.591 µM) | 0.39 (≈ 1.15 µM) | ≤ 0.05 | 1.56 (≈ 4.61 µM) | 0.2 (≈ 0.591 µM) | ≤ 0.05 | 0.78 (≈ 2.31 µM) | ≤ 0.05 | 0.78 (≈ 2.31 µM) | 1.56 (≈ 4.61 µM) | 1.56 (≈ 4.61 µM) | 12.5 (≈ 36.9 µM) | 1.56 (≈ 4.61 µM) | 0.2 (≈ 0.591 µM) | 0.2 (≈ 0.591 µM) | –
5 | CCn1cc(C(=O)O)c(=O)c2cc(F)c(N3CCC(N(C)C)CC3)c(F)c21 [Example 13, 1-Ethyl-6,8-difluoro-1,4-dihydro-7-(4-dimethylamino-1-piperidinyl)-4-oxoquinoline-3-carboxylic acid] | 0.2 (≈ 0.527 µM) | 0.78 (≈ 2.06 µM) | 0.39 (≈ 1.03 µM) | 25 (≈ 65.9 µM) | 0.39 (≈ 1.03 µM) | ≤ 0.05 | 0.78 (≈ 2.06 µM) | 0.1 (≈ 0.264 µM) | 0.78 (≈ 2.06 µM) | 0.39 (≈ 1.03 µM) | ≤ 0.05 | 1.56 (≈ 4.11 µM) | 0.1 (≈ 0.264 µM) | 0.39 (≈ 1.03 µM) | 0.78 (≈ 2.06 µM) | 3.13 (≈ 8.25 µM) | 12.5 (≈ 32.9 µM) | 6.25 (≈ 16.5 µM) | 0.39 (≈ 1.03 µM) | 0.1 (≈ 0.264 µM) | –
6 | CCn1cc(C(=O)O)c(=O)c2cc(F)c(N3CCC(O)CC3)c(F)c21 [Example 16, 1-Ethyl-6,8-difluoro-1,4-dihydro-7-(4-hydroxy-1-piperidinyl)-4-oxoquinoline-3-carboxylic acid silver salt] | – | – | – | – | – | – | – | – | – | 0.39 | – | – | – | – | – | – | 3.13 | – | 0.2 | – | Minimum inhibitory concentration (S. aureus Terajima; S. aureus Terajima): 0.39 µg/mL; Minimum inhibitory concentration (E. coli ATCC 10536): 0.78 µg/mL; Minimum inhibitory concentration ([1]; Escherichia coli NIHJ JC-2): 0.78 µg/mL; Minimum inhibitory concentration ([2]; Yersinia enterocolitica IID 981): 1.56 µg/mL; Minimum inhibitory concentration (Proteus vulgaris 3167; Proteus vulgaris 3167): 0.10 µg/mL; Minimum inhibitory concentration ([3]; Serratia marcescens IID 618): 3.13 µg/mL; Minimum inhibitory concentration [4]: 1.56 µg/mL; Minimum inhibitory concentration ([5]; Klebsiella pneumoniae IFO 3512): 0.10 µg/mL; Minimum inhibitory concentration (P. morganii IID 602; P. morganii IID 602): 1.56 µg/mL; Minimum inhibitory concentration ([6]; Bacillus subtilis): ≤ 0.05 µg/mL; Minimum inhibitory concentration ([7]; Citrobacter freundii IID 976): 1.56 µg/mL; Minimum inhibitory concentration ([8]; Salmonella enteritidis IID 604): 1.56 µg/mL; Minimum inhibitory concentration ([9]; Enterobacter cloacae IID 977): 3.13 µg/mL; Minimum inhibitory concentration ([11]; Alcaligenes faecalis 0104002): 3.13 µg/mL; Minimum inhibitory concentration (S. epidermidis IID 866): 0.39 µg/mL; Minimum inhibitory concentration (P. aeruginosa IFO 12689; P. aeruginosa IFO 12689): 25 µg/mL; Minimum inhibitory concentration (Shigella sonnei IID 969; Shigella sonnei IID 969): 0.39 µg/mL
7 | CCn1cc(C(=O)O)c(=O)c2ccc(C)nc21 [nalidixic acid] | – | – | – | – | – | – | – | – | – | – | – | – | – | – | – | – | – | – | – | – | effectiveness in the therapy of infections due to gram-negative bacteria (gram-negative bacteria): highly effective; activities against most gram-positive bacteria (gram-positive bacteria): weak activities; activities against Pseudomonas aeruginosa (Pseudomonas aeruginosa): weak activities
8 | CCn1cc(C(=O)O)c(=O)c2cnc(N3CCNCC3)nc21 [pipemidic acid] | – | – | – | – | – | – | – | – | – | – | – | – | – | – | – | – | – | – | – | – | effectiveness in the therapy of infections due to gram-negative bacteria (gram-negative bacteria): highly effective; activities against most gram-positive bacteria (gram-positive bacteria): weak activities; activities against Pseudomonas aeruginosa (Pseudomonas aeruginosa): weak activities
9 | CCn1cc(C(=O)O)c(=O)c2cnc(N3CCCC3)nc21 [piromidic acid] | – | – | – | – | – | – | – | – | – | – | – | – | – | – | – | – | – | – | – | – | effectiveness in the therapy of infections due to gram-negative bacteria (gram-negative bacteria): highly effective; activities against most gram-positive bacteria (gram-positive bacteria): weak activities; activities against Pseudomonas aeruginosa (Pseudomonas aeruginosa): weak activities
